For two compounds, Kd results are on record in paper PMC6406002, “Comparison of the functional properties of trimeric and monomeric CaiT of Escherichia coli” (Scientific Reports, 2019).

Like-named read-outs stand apart in the source and are kept apart here.

What all share (experiment): tryptophan fluorescence titration
Holding throughout (format): binding

In test [1] the target is T1, CaiT (Escherichia coli, UniProt P31553, D288R).
T1 construct: full-length with C-terminal 6His tag (pET21a), expressed in E. coli JW0039 (delta caiT), Ni-NTA purified; homotrimer (D288A and D288R mostly monomeric); DDM-solubilized or in proteoliposomes
The source says: (§1) tryptophan fluorescence titration on CaiT

Test [2] has as its target T2, CaiT (Escherichia coli, UniProt P31553, D288A).
T2 construct: full-length with C-terminal 6His tag (pET21a), expressed in E. coli JW0039 (delta caiT), Ni-NTA purified; homotrimer (D288A and D288R mostly monomeric); DDM-solubilized or in proteoliposomes
Text: as §1

The target in test [3] is T3, CaiT (Escherichia coli, UniProt P31553).
T3 construct: full-length with C-terminal 6His tag (pET21a), expressed in E. coli JW0039 (delta caiT), Ni-NTA purified; homotrimer (D288A and D288R mostly monomeric); DDM-solubilized or in proteoliposomes
Text: as §1

On to `C[N+](C)(C)C[C@H](O)CC(=O)O` [L-carnitine], for which the Kd at CaiT [1] (read-out: L-carnitine / Kd) worked out at 1.9 ± 1 mM; at CaiT [2] (read-out: L-carnitine / Kd), 1.8 ± 0.9 mM; on CaiT [3] (read-out: L-carnitine / Kd), 3.3 ± 0.2 mM.
On to `C[N+](C)(C)CCCC(=O)[O-]` [γ-butyrobetaine], for which the results for the Kd on CaiT [1] (read-out: γ-butyrobetaine / Kd), on CaiT [2] (read-out: γ-butyrobetaine / Kd) and at CaiT [3] (read-out: γ-butyrobetaine / Kd) were 11.4 ± 4.4 mM, 3.3 ± 1.3 mM and 3.4 ± 0.1 mM, respectively.
